#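 Cells were grown in 96-well plates and exposed to each compound for 48 hours at five concentrations; endpoints were interpolated linearly between bracketing concentrations, or set to the highest concentration if not reached. GI50 marks 50% less growth.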 Calls of active or inactive are those of the source. Rule as the data show it: active = GI50 up to about 1.1 µM and inactive = higher.
# How the values were obtained:
# Assay in all cases: growth of human tumour cells (NCI), 48 h
# Malme-3M = tested on: Malme-3M
# HCT-15 = tested on: HCT-15
# HL-60 = tested on: HL-60
# ACHN = tested on: ACHN
# MOLT-4 = tested on: MOLT-4
# UACC-257 = tested on: UACC-257
# RPMI-8226 = tested on: RPMI-8226
# SNB-75 = tested on: SNB-75
# SW-620 = tested on: SW-620
# SK-MEL-28 = tested on: SK-MEL-28
# A549 = tested on: A549
# PC-3 = tested on: PC-3
# UACC-62 = tested on: UACC-62
# MDA-MB-231 = tested on: MDA-MB-231
# SF-268 = tested on: SF-268
# HT-29 = tested on: HT-29
# U-251 = tested on: U-251
# NCI-H522 = tested on: NCI-H522
# 786-0 = tested on: 786-0
# K562 = tested on: K562
# DU-145 = tested on: DU-145
# MCF7 = tested on: MCF7
# HOP-62 = tested on: HOP-62
# BT-549 = tested on: BT-549
# NCI/ADR-RES = tested on: NCI/ADR-RES
# SF-295 = tested on: SF-295
# TK-10 = tested on: TK-10
# LOX IMVI = tested on: LOX IMVI
# OVCAR-3 = tested on: OVCAR-3
# NCI-H226 = tested on: NCI-H226
# SN12C = tested on: SN12C
# COLO 205 = tested on: COLO 205
# CAKI-1 = tested on: CAKI-1
# MDA-N = tested on: MDA-N
# OVCAR-4 = tested on: OVCAR-4
# OVCAR-8 = tested on: OVCAR-8
# SK-OV-3 = tested on: SK-OV-3
# OVCAR-5 = tested on: OVCAR-5
# KM12 = tested on: KM12
# HOP-92 = tested on: HOP-92
# UO-31 = tested on: UO-31
# IGROV-1 = tested on: IGROV-1
# M14 = tested on: M14
# SR = tested on: SR
# HCT-116 = tested on: HCT-116
# SF-539 = tested on: SF-539
# NCI-H460 = tested on: NCI-H460
# NCI-H23 = tested on: NCI-H23
# CCRF-CEM = tested on: CCRF-CEM
# SNB-19 = tested on: SNB-19
# SK-MEL-2 = tested on: SK-MEL-2
# Hs-578T = tested on: Hs-578T
# MDA-MB-435 = tested on: MDA-MB-435
# EKVX = tested on: EKVX
smiles,measurement,setting,value
O=C1/C(=C/c2cccc(Br)c2)CCc2ccccc21,GI50,Malme-3M,12.4 µM (inactive)
same,GI50,HCT-15,11.5 µM
same,GI50,HL-60,5.68 µM (inactive)
same,GI50,ACHN,14.2 µM (inactive)
same,GI50,MOLT-4,10.2 µM (inactive)
same,GI50,UACC-257,14.8 µM (inactive)
same,GI50,RPMI-8226,2.99 µM (inactive)
same,GI50,SNB-75,14.5 µM (inactive)
same,GI50,SW-620,5.51 µM (inactive)
same,GI50,SK-MEL-28,18.4 µM (inactive)
same,GI50,A549,16.4 µM (inactive)
same,GI50,PC-3,14.2 µM (inactive)
same,GI50,UACC-62,10.5 µM (inactive)
same,GI50,MDA-MB-231,20.4 µM (inactive)
same,GI50,SF-268,6.76 µM (inactive)
same,GI50,HT-29,10.9 µM (inactive)
same,GI50,U-251,14.6 µM (inactive)
same,GI50,NCI-H522,10.6 µM (inactive)
same,GI50,786-0,16.3 µM (inactive)
same,GI50,K562,6.65 µM (inactive)
same,GI50,DU-145,17.2 µM (inactive)
same,GI50,MCF7,3.75 µM (inactive)
same,GI50,HOP-62,16 µM (inactive)
same,GI50,BT-549,9.53 µM (inactive)
same,GI50,NCI/ADR-RES,14 µM (inactive)
same,GI50,SF-295,15.2 µM (inactive)
same,GI50,TK-10,16.5 µM (inactive)
same,GI50,LOX IMVI,12.8 µM (inactive)
same,GI50,OVCAR-3,15.2 µM (inactive)
same,GI50,NCI-H226,15.2 µM (inactive)
same,GI50,SN12C,15.4 µM (inactive)
same,GI50,COLO 205,20.8 µM (inactive)
same,GI50,CAKI-1,16 µM (inactive)
same,GI50,MDA-N,10.8 µM (inactive)
same,GI50,OVCAR-4,13.1 µM (inactive)
same,GI50,OVCAR-8,16.1 µM (inactive)
same,GI50,SK-OV-3,22.8 µM (inactive)
same,GI50,OVCAR-5,14.9 µM (inactive)
same,GI50,KM12,4.02 µM (inactive)
same,GI50,HOP-92,14.7 µM (inactive)
same,GI50,UO-31,13.8 µM (inactive)
same,GI50,IGROV-1,11.4 µM (inactive)
same,GI50,M14,15.8 µM (inactive)
same,GI50,SR,4.1 µM (inactive)
same,GI50,HCT-116,7.69 µM (inactive)
same,GI50,SF-539,17.5 µM (inactive)
same,GI50,NCI-H460,15.2 µM (inactive)
same,GI50,NCI-H23,15.8 µM (inactive)
same,GI50,CCRF-CEM,3.26 µM (inactive)
same,GI50,SNB-19,14.7 µM (inactive)
same,GI50,SK-MEL-2,12.9 µM (inactive)
same,GI50,Hs-578T,6.05 µM (inactive)
same,GI50,MDA-MB-435,12.4 µM (inactive)
same,GI50,EKVX,17.6 µM (inactive)

# From ChEMBL document CHEMBL1201862, “PubChem BioAssay data set” (2004)
